{"source": "patent US20200077648A1", "about": "“PHENOXYPHENYLAMIDINES AND THE USE THEREOF AS FUNGICIDES” (priority 2016, published 2020)", "key": {"soy bean plants": {"test_system": "soy bean plants", "assay": "Plant compatibility test using soy bean plants", "type": "in vivo", "conditions": "soy bean young plants sprayed, rate of application of active compound 500 ppm, evaluated 6 days after application; 0% = no damages, 100% = plants totally damaged", "protocol": "Plant Compatibility Test Using Soy Bean Plants\nSolvent: 24.5 parts by weight of acetone • 24.5 parts by weight of dimethylacetamide Emulsifier: 1 part by weight of alkylaryl polyglycol ether\nTo produce a suitable preparation of active compound, 1 part by weight of active compound is mixed with the stated amounts of solvent and emulsifier, and the concentrate is diluted with water to the desired concentration. Young plants are sprayed with the preparation of active compound at the stated application rate. The plants are then placed in a greenhouse at approximately 21° C. and a relative atmospheric humidity of approximately 80%. The test is evaluated 6 days after application and comprises plant damages like leaf deformation, chlorosis, necrosis, shoot damage or stunting. 0% means no damages are observed, while 100% means that the plants are totally damaged."}, "[1]": {"assay": "Log P measurement by HPLC on reversed phase columns (EEC directive 79/831 Annex V.A8; methods [a], [b], [c])", "type": "physicochemical", "protocol": "If more than one Log P value is available within the same method, all the values are given and separated by “+”. […] Lambda-max-values were determined using UV-spectra from 200 nm to 400 nm and the peak values of the chromatographic signals."}, "[2]": {"conditions": "method [a]: LC-UV, acidic range, 0.1% formic acid in water and acetonitrile as eluent"}, "[3]": {"conditions": "method [a]: LC-UV, acidic range, 0.1% formic acid in water and acetonitrile as eluent (linear gradient 10% to 95% acetonitrile)"}, "[4]": {"conditions": "method [b]: LC-UV, neutral range, 0.001 molar ammonium acetate solution in water and acetonitrile as eluent"}}, "data": [{"molecule": "CCN(C)C=Nc1cc(C)c(Oc2ccc(F)cc2)cc1Cl", "note": "[Example 9]", "values": [{"measurement": "Necrosis in %", "setting": "soy bean plants", "result": 5, "unit": "%"}, {"measurement": "LogP", "setting": "[1]; [2]", "result": "1.47^[a]"}]}, {"molecule": "CCN(C)C=Nc1cc(C(F)F)c(Oc2ccccc2F)cc1C", "note": "[Example 105]", "values": [{"measurement": "Necrosis in %", "setting": "soy bean plants", "result": 0, "unit": "%"}, {"measurement": "LogP", "setting": "[1]; [3]", "result": "1.46^[a]"}]}, {"molecule": "CCN(C)C=Nc1cc(C)c(Oc2cccc(F)c2C#N)cc1Cl", "note": "[Example 88]", "values": [{"measurement": "Necrosis in %", "setting": "soy bean plants", "result": 20, "unit": "%"}, {"measurement": "LogP", "setting": "[1]; [3]", "result": "1.35^[a]"}]}, {"molecule": "CCN(C)C=Nc1cc(Cl)c(Oc2cccc(F)c2)cc1C", "note": "[Example 12]", "values": [{"measurement": "Necrosis in %", "setting": "soy bean plants", "result": 5, "unit": "%"}, {"measurement": "LogP", "setting": "[1]; [2]", "result": "1.75^[a]"}]}, {"molecule": "CCN(C)C=Nc1cc(C)c(Oc2ccccc2C(F)(F)F)cc1C", "note": "[Example 114]", "values": [{"measurement": "Necrosis in %", "setting": "soy bean plants", "result": 5, "unit": "%"}, {"measurement": "LogP", "setting": "[1]; [3]", "result": "1.69^[a]"}]}, {"molecule": "CCN(C)C=Nc1cc(Br)c(Oc2ccccc2F)cc1C", "note": "[Example 42]", "values": [{"measurement": "Necrosis in %", "setting": "soy bean plants", "result": 20, "unit": "%"}, {"measurement": "LogP", "setting": "[1]; [2]", "result": "1.55^[a]"}]}, {"molecule": "CCN(C)C=Nc1cc(I)c(Oc2ccccc2F)cc1C", "note": "[Example 55]", "values": [{"measurement": "Necrosis in %", "setting": "soy bean plants", "result": 10, "unit": "%"}, {"measurement": "LogP", "setting": "[1]; [2]", "result": "1.58^[a]"}]}, {"molecule": "C=C(C)c1cc(N=CN(C)CC)c(C)cc1Oc1ccccc1F", "note": "[Example 118]", "values": [{"measurement": "Necrosis in %", "setting": "soy bean plants", "result": 5, "unit": "%"}, {"measurement": "LogP", "setting": "[1]; [3]", "result": "1.60^[a]"}]}, {"molecule": "Cc1cc(Oc2ccccc2C#N)c(C)cc1N=CN(C)C(C)C", "note": "[Example 71]", "values": [{"measurement": "Necrosis in %", "setting": "soy bean plants", "result": 5, "unit": "%"}, {"measurement": "LogP", "setting": "[1]; [3]", "result": "1.48^[a]"}]}, {"molecule": "Cc1cc(N=CN(C)C(C)C)c(Cl)cc1Oc1ccccc1F", "note": "[Example 7]", "values": [{"measurement": "Necrosis in %", "setting": "soy bean plants", "result": 10, "unit": "%"}, {"measurement": "LogP", "setting": "[1]; [2]", "result": "1.80^[a]"}]}, {"molecule": "CCN(C)C=Nc1cc(C(F)(F)F)c(Oc2ccccc2C#N)cc1C", "note": "[Example 21]", "values": [{"measurement": "Necrosis in %", "setting": "soy bean plants", "result": 20, "unit": "%"}, {"measurement": "LogP", "setting": "[1]; [2]", "result": "1.46^[a]"}]}, {"molecule": "CCN(C)C=Nc1cc(Cl)c(Oc2cccc(Cl)c2)cc1C", "note": "[Example 48]", "values": [{"measurement": "Necrosis in %", "setting": "soy bean plants", "result": 30, "unit": "%"}, {"measurement": "LogP", "setting": "[1]; [2]", "result": "1.83^[a]"}]}, {"molecule": "CCN(C)C=Nc1cc(I)c(Oc2ccccc2C#N)cc1C", "note": "[Example 56]", "values": [{"measurement": "Necrosis in %", "setting": "soy bean plants", "result": 10, "unit": "%"}, {"measurement": "LogP", "setting": "[1]; [2]", "result": "1.37^[a]"}]}, {"molecule": "Cc1cc(Oc2ccccc2F)c(C)cc1N=CN(C)C(C)C", "note": "[Example 67]", "values": [{"measurement": "Necrosis in %", "setting": "soy bean plants", "result": 40, "unit": "%"}, {"measurement": "LogP", "setting": "[1]; [2]", "result": "1.68^[a]"}]}, {"molecule": "CCN(C)C=Nc1cc(C)c(Oc2cccc(F)c2)cc1Cl", "note": "[Example 5]", "values": [{"measurement": "Necrosis in %", "setting": "soy bean plants", "result": 10, "unit": "%"}, {"measurement": "LogP", "setting": "[1]; [2]", "result": "1.58^[a]"}]}, {"molecule": "CCN(C)C=Nc1cc(C)c(Oc2cccc(C)c2F)cc1C", "note": "[Example 20]", "values": [{"measurement": "Necrosis in %", "setting": "soy bean plants", "result": 80, "unit": "%"}, {"measurement": "LogP", "setting": "[1]; [2]", "result": "1.69^[a]"}]}, {"molecule": "CCN(C)C=Nc1cc(C)c(Oc2cccc(F)c2)cc1C", "note": "[Example 2]", "values": [{"measurement": "Necrosis in %", "setting": "soy bean plants", "result": 80, "unit": "%"}, {"measurement": "LogP", "setting": "[1]; [2]", "result": "1.50^[a]"}]}, {"molecule": "CCN(C)C=Nc1cc(I)c(Oc2ccccc2)cc1C", "note": "[Example 30]", "values": [{"measurement": "Necrosis in %", "setting": "soy bean plants", "result": 50, "unit": "%"}, {"measurement": "LogP", "setting": "[1]; [2]", "result": "1.69^[a];"}, {"measurement": "LogP", "setting": "[1]; [4]", "result": "5.01^[b]"}]}, {"molecule": "CCN(C)C=Nc1cc(OC)c(Oc2ccccc2)cc1C", "note": "[Example 31]", "values": [{"measurement": "Necrosis in %", "setting": "soy bean plants", "result": 30, "unit": "%"}, {"measurement": "LogP", "setting": "[1]; [2]", "result": "1.42^[a];"}, {"measurement": "LogP", "setting": "[1]; [4]", "result": "3.93^[b]"}]}, {"molecule": "CCc1cc(N=CN(C)CC)c(C)cc1Oc1ccccc1F", "note": "[Example 106]", "values": [{"measurement": "Necrosis in %", "setting": "soy bean plants", "result": 30, "unit": "%"}, {"measurement": "LogP", "setting": "[1]; [3]", "result": "1.69^[a]"}]}, {"molecule": "CCN(C)C=Nc1cc(C)c(Oc2ccccc2Cl)cc1C", "note": "[Example 16]", "values": [{"measurement": "Necrosis in %", "setting": "soy bean plants", "result": 30, "unit": "%"}, {"measurement": "LogP", "setting": "[1]; [2]", "result": "1.86^[a]"}]}, {"molecule": "CCN(C)C=Nc1cc(C(F)F)c(Oc2ccccc2C#N)cc1C", "note": "[Example 102]", "values": [{"measurement": "Necrosis in %", "setting": "soy bean plants", "result": 0, "unit": "%"}, {"measurement": "LogP", "setting": "[1]; [3]", "result": "1.18^[a]"}]}, {"molecule": "CCN(C)C=Nc1cc(C2CC2)c(Oc2ccccc2F)cc1C", "note": "[Example 120]", "values": [{"measurement": "Necrosis in %", "setting": "soy bean plants", "result": 0, "unit": "%"}, {"measurement": "LogP", "setting": "[1]; [3]", "result": "1.60^[a]"}]}, {"molecule": "CCN(C)C=Nc1cc(Br)c(Oc2ccccc2)cc1C", "note": "[Example 36]", "values": [{"measurement": "Necrosis in %", "setting": "soy bean plants", "result": 40, "unit": "%"}, {"measurement": "LogP", "setting": "[1]; [2]", "result": "1.58^[a];"}, {"measurement": "LogP", "setting": "[1]; [4]", "result": "4.79^[b]"}]}, {"molecule": "CCN(C)C=Nc1cc(C)c(Oc2cccc(F)c2F)cc1C", "note": "[Example 19]", "values": [{"measurement": "Necrosis in %", "setting": "soy bean plants", "result": 60, "unit": "%"}, {"measurement": "LogP", "setting": "[1]; [2]", "result": "1.49^[a]"}]}, {"molecule": "CCN(C)C=Nc1cc(Cl)c(Oc2ccc(F)cc2)cc1C", "note": "[Example 8]", "values": [{"measurement": "Necrosis in %", "setting": "soy bean plants", "result": 0, "unit": "%"}, {"measurement": "LogP", "setting": "[1]; [2]", "result": "1.55^[a]"}]}, {"molecule": "CCN(C)C=Nc1cc(F)c(Oc2ccccc2F)cc1C", "note": "[Example 65]", "values": [{"measurement": "Necrosis in %", "setting": "soy bean plants", "result": 20, "unit": "%"}, {"measurement": "LogP", "setting": "[1]; [2]", "result": "1.34^[a]"}]}, {"molecule": "CCN(C)C=Nc1cc(C)c(Oc2cc(F)ccc2C#N)cc1Cl", "note": "[Example 93]", "values": [{"measurement": "Necrosis in %", "setting": "soy bean plants", "result": 10, "unit": "%"}, {"measurement": "LogP", "setting": "[1]; [3]", "result": "1.27^[a]"}]}, {"molecule": "CCN(C)C=Nc1cc(C(C)C)c(Oc2ccccc2C#N)cc1C", "note": "[Example 107]", "values": [{"measurement": "Necrosis in %", "setting": "soy bean plants", "result": 0, "unit": "%"}, {"measurement": "LogP", "setting": "[1]; [3]", "result": "1.75^[a]"}]}, {"molecule": "CCN(C)C=Nc1cc(C)c(Oc2ccccc2[S+](C)[O-])cc1Br", "note": "(stereo not shown) [Example 101]", "values": [{"measurement": "LogP", "setting": "[1]; [3]", "result": "1.02^[a]"}]}, {"molecule": "CCN(C)C=Nc1cc(C)c(Oc2ccccc2I)cc1C(F)F", "note": "[Example 41]", "values": [{"measurement": "LogP", "setting": "[1]; [2]", "result": "1.90^[a]"}]}, {"molecule": "CCN(C)C=Nc1cc(C)c(Oc2ccccc2F)cc1C1CC1", "note": "[Example 110]", "values": [{"measurement": "LogP", "setting": "[1]; [3]", "result": "1.83^[a]"}]}]}
